pKi: −log10 of the molar value.

Sequence of tau (P10636 2-758 limits assumed): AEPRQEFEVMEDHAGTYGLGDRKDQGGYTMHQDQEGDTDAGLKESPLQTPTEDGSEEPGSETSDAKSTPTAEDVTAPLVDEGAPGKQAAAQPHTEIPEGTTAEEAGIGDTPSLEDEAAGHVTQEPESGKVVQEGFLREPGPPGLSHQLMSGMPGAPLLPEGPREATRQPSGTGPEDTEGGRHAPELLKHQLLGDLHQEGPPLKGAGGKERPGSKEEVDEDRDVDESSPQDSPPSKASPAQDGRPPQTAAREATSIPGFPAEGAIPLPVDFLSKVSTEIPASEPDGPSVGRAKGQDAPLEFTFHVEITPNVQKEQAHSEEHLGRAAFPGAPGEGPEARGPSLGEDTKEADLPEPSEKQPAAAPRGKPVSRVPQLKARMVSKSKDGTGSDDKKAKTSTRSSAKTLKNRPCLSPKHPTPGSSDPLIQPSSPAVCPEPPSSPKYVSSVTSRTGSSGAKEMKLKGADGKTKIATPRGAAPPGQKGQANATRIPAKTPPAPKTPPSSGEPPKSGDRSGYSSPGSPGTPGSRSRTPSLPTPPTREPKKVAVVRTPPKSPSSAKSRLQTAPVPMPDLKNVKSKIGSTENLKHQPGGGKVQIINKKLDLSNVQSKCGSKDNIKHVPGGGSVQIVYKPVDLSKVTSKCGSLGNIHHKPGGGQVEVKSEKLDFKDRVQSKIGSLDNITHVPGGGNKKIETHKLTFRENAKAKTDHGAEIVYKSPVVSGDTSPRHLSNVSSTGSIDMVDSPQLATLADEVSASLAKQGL

This assay concerns the target tau (Homo sapiens, UniProt P10636). Put plainly: displacement tau binding assay in AD brain homogenates with [^3H]-6. The conditions noted are these: Table 1, displacement of [^3H]-6 (0.25 nM). On the procedure:
The frozen human brain samples of Alzheimer's disease (AD) were purchased from Analytic Biological Services Inc. They were postmortem tissue from donors with clinical diagnosis of AD. As much of the white matter was dissected out of the frontal cortex in order to enrich the tissue preparations for gray matter. Brain homogenates of gray matter enriched frontal cortex were prepared by homogenizing the tissue in ice cold Phosphate Buffered Saline (PBS), pH 7.4 at 80 mg wet weight tissue per 1 mL for 45 seconds at 4° C. on setting 16 of Polytron. The homogenate was further diluted with ice cold PBS to 30 mg wet weight tissue per 1 mL and homogenized for an additional minute as described above. Homogenates were aliquoted in 5 ml/tube and store at −70° C. until use. […] Brain homogenates were diluted to 0.5 mg/mL from original 30 mg/mL volume in Assay Buffer, and 200 μl were added to the assay plate for a final concentration of 100 μg wet weight/assay tube. [^3H]-6 was prepared at […] final concentration in Assay Buffer plus 20% DMSO and 25 μl was added to the assay plate for final assay concentration of 0.25 nM. The assay plate was incubated at room temperature (25° C.) for 90 minutes. […] Filter plates were dried for 1 hour in a vacuum oven and 50 μl/well MicroScint-20 were added. Plates were counted 1 min per well by Packard Topcount. Total amount of radioligand used in the assay was determined by counting 25 μl of 10× ligand stock. […] Tau Ki data for representative compounds of the invention are found in Table 1.
For the compound `c1ccc2cc(-n3ccc4ccncc43)ncc2c1` [Compound 6, 3-(1H-pyrrolo[2,3-c]pyridin-1-yl)isoquinoline], the pKi is 9.27. Regarding `FCC#Cc1ccc(-n2ccc3ccncc32)nc1` [Compound 7, 1-(5-(3-fluoroprop-1-ynyl)pyridin-2-yl)-1H-pyrrolo[2,3-c]pyridine], the negative logarithm of the Ki (pKi) is 8.78. Regarding `c1cc2ccn(-c3cc4cc[nH]c4cn3)c2cn1` [Compound 8, 1-(1H-pyrrolo[2,3-c]pyridin-5-yl)-1H-pyrrolo[2,3-c]pyridine], the pKi is 9.32. The compound `Fc1ccc2cnc(-n3ccc4ccncc43)cc2c1` [Compound 9, 6-fluoro-3-(1H-pyrrolo[2,3-c]pyridin-1-yl)isoquinoline] showed a pKi of 9.66. The figure for `Nc1cccc2cnc(-n3ccc4ccncc43)cc12` [Compound 11-5, 3-(1H-pyrrolo[2,3-c]pyridin-1-yl)isoquinolin-5-amine] is 9.40; for `Nc1ccc2cc(-n3ccc4ccncc43)ncc2c1` [Compound 12, 3-(1H-pyrrolo[2,3-c]pyridin-1-yl)isoquinolin-7-amine] it is 9.54.

The compound `COc1ccc2cc(-n3ccc4ccncc43)ncc2c1` [Compound 13, 7-methoxy-3-(1H-pyrrolo[2,3-c]pyridin-1-yl)isoquinoline] showed a pKi of 9.54. In the case of `CN(CCF)c1ccc2cnc(-n3ccc4ccncc43)cc2c1` [Compound 14, N-(2-fluoroethyl)-N-methyl-3-(1H-pyrrolo[2,3-c]pyridin-1-yl)isoquinolin-6-amine] it was 8.64; in that of `CNc1ccc2cnc(-n3ccc4ccncc43)cc2c1` [Compound 14-1, N-methyl-3-(1H-pyrrolo[2,3-c]pyridin-1-yl)isoquinolin-6-amine], 9.48; in that of `Oc1ccc2cc(-n3ccc4ccncc43)ncc2c1` [Compound 15, 3-(1H-pyrrolo[2,3-c]pyridin-1-yl)isoquinolin-7-ol], 9.28. The figure for `FCCOc1ccc2cc(-n3ccc4ccncc43)ncc2c1` [Compound 16, 7-(2-fluoroethoxy)-3-(1H-pyrrolo[2,3-c]pyridin-1-yl)isoquinoline] is 9.39; for `FCOc1ccc2cc(-n3ccc4ccncc43)ncc2c1` [Compound 17, 7-(fluoromethoxy)-3-(1H-pyrrolo[2,3-c]pyridin-1-yl)isoquinoline] it is 9.37; for `Nc1c(F)ccc2cnc(-n3ccc4ccncc43)cc12` [Compound 18, 6-fluoro-3-(1H-pyrrolo[2,3-c]pyridin-1-yl)isoquinolin-5-amine] it is 9.37. The figure for `Cn1ccc2cc(-n3ccc4ccncc43)ncc21` [Compound 19, 1′-methyl-1,5′-bi(1H-pyrrolo[2,3-c]pyridine)] is 9.21; for `Ic1ccc2cnc(-n3ccc4ccncc43)cc2c1` [Compound 20, 6-iodo-3-(1H-pyrrolo[2,3-c]pyridin-1-yl)isoquinoline] it is 9.12. `CC#Cc1cnc(-n2ccc3ccncc32)cc1CF` [Compound 21, 1-(4-(fluoromethyl)-5-(prop-1-ynyl)pyridin-2-yl)-1H-pyrrolo[2,3-c]pyridine]: the negative-log Ki (pKi) was 8.39. In the case of `CC#Cc1cnc(-n2ccc3ccncc32)cc1CO` [Compound 21-4, (5-(prop-1-ynyl)-2-(1H-pyrrolo[2,3-c]pyridin-1-yl)pyridin-4-yl)methanol] it was 8.47. In the case of `CC#Cc1cnc(-n2ccc3ccncc32)cc1F` [Compound 22, 1-(4-fluoro-5-(prop-1-ynyl)pyridin-2-yl)-1H-pyrrolo[2,3-c]pyridine] it was 8.84; in that of `Cc1cc2cnc(-n3ccc4ccncc43)cc2o1` [Compound 23, 2-methyl-6-(1H-pyrrolo[2,3-c]pyridin-1-yl)furo[3,2-c]pyridine], 8.68.

Turning to `FCOc1ccc2nc(-n3ccc4ccncc43)ncc2c1` [Compound 24, 6-(fluoromethoxy)-2-(1H-pyrrolo[2,3-c]pyridin-1-yl)quinazoline], the pKi is 7.89. Compound `COc1ccc2nc(-n3ccc4ccncc43)ncc2c1` [Compound 24-4, 6-methoxy-2-(1H-pyrrolo[2,3-c]pyridin-1-yl)quinazoline] gave a negative-log Ki (pKi) of 8.81. Turning to `Oc1ccc2nc(-n3ccc4ccncc43)ncc2c1` [Compound 24-5, 2-(1H-pyrrolo[2,3-c]pyridin-1-yl)quinazolin-6-ol], the pKi is 7.95. As to `Fc1nccc2cnc(-n3ccc4ccncc43)cc12` [Compound 25, 1-fluoro-7-(1H-pyrrolo[2,3-c]pyridin-1-yl)-2,6-naphthyridine], the pKi was 7.85. The compound `c1cc2cnc(-n3ccc4ccncc43)cc2cn1` [Compound 26, 3-(1H-pyrrolo[2,3-c]pyridin-1-yl)-2,6-naphthyridine] gave a negative logarithm of the Ki (pKi) of 8.64. In the case of `FCCn1ccc(-c2cnc(-n3ccc4ccncc43)nc2)n1` [Compound 29, 1-(5-(1-(2-fluoroethyl)-1H-pyrazol-3-yl)pyrimidin-2-yl)-1H-pyrrolo[2,3-c]pyridine] it was 8.62. The figure for `C=Cc1cc(-n2ccc3ccncc32)ncc1C#CCF` [Compound 30, 1-(5-(3-fluoroprop-1-ynyl)-4-vinylpyridin-2-yl)-1H-pyrrolo[2,3-c]pyridine] is 8.61. The compound `ClCCC1CCN(c2ccc(-n3ccc4ccncc43)nc2)CC1` [Compound 31, 1-(5-(4-(2-chloroethyl)piperidin-1-yl)pyridin-2-yl)-1H-pyrrolo[2,3-c]pyridine] showed a negative-log Ki (pKi) of 8.54. Take `OCCC1CCN(c2ccc(-n3ccc4ccncc43)nc2)CC1` [Compound 31-1, 2-(1-(6-(1H-pyrrolo[2,3-c]pyridin-1-yl)pyridin-3-yl)piperidin-4-yl)ethanol]: the pKi is 8.45. `Cc1cc(-n2ccc3ccncc32)ncc1OCCF` [Compound 32, 1-(5-(2-fluoroethoxy)-4-methylpyridin-2-yl)-1H-pyrrolo[2,3-c]pyridine] had a pKi of 8.53. The figure for `CC#Cc1cnc(-n2ccc3ccncc32)cc1OC` [Compound 33, 1-(4-methoxy-5-(prop-1-ynyl)pyridin-2-yl)-1H-pyrrolo[2,3-c]pyridine] is 8.48; for `COc1ccc(NC(=O)c2ccc(-n3ccc4ccncc43)nc2)cc1` [Compound 34, N-(4-methoxyphenyl)-6-(1H-pyrrolo[2,3-c]pyridin-1-yl)nicotinamide] it is 8.42; for `FCCCNc1ccc(-n2ccc3ccncc32)nc1` [Compound 35, N-(3-fluoropropyl)-6-(1H-pyrrolo[2,3-c]pyridin-1-yl)pyridin-3-amine] it is 8.50. The figure for `FCCNc1ccc(-n2ccc3ccncc32)nc1` [Compound 36, N-(2-fluoroethyl)-6-(1H-pyrrolo[2,3-c]pyridin-1-yl)pyridin-3-amine] is 8.30; for `Fc1nc(-n2ccc3ccncc32)ccc1-c1cccnc1` [Compound 37, 1-(2-fluoro-3,3′-bipyridin-6-yl)-1H-pyrrolo[2,3-c]pyridine] it is 7.71.

Take `Fc1cc2ccn(-c3cc4ccccc4cn3)c2cn1` [Compound 38, 3-(5-fluoro-1H-pyrrolo[2,3-c]pyridin-1-yl)isoquinoline]: the pKi was 7.28. The figure for `c1cc2ccn(-c3cc4c(cn3)CCCN4)c2cn1` [Compound 39, 7-(1H-pyrrolo[2,3-c]pyridin-1-yl)-1,2,3,4-tetrahydro-1,6-naphthyridine] is 7.97.

In general, pKi refers to the negative decadic logarithm of the Ki, by convention in mol/L.

These data come from patent publication US10022461B2, “Pyrrolo[2,3-C]pyridines as imaging agents for neurofibrilary tangles” (MERCK SHARP & DOHME CORP., priority 2014, dated 2018).
